Key:
[1] = test system: subjects (26 men, 9 women); assay: Example 6: stress/rest SPECT myocardial perfusion imaging, adenosine versus CVT-3146; format: in vivo, human
Description: To determine the ability of CVT-3146 to produce coronary hyperemia and accurately detect CAD, 35 subjects (26 men, 9 women; 67±10 years) underwent both A and CVT-3146 stress/rest MPI, with 10.0±9.1 days between studies. […] CVT-3146 [400 mcg (n=18), 500 mcg (n=17)] was administered as an IV bolus immediately followed by a saline flush, and then a Tc-99m radiopharmaceutical [sestamibi (n=34), tetrofosmin (n=1)]. SPECT images were uniformly processed, intermixed with control studies (normal and fixed-only defects), and interpreted by three observers in a blinded fashion using a 17-segment model. Quantitative analysis was also performed using 4D MSPECT. In addition to three separate readings, a consensus interpretation was performed and then a direct, same-screen comparison of A and CVT-3146 images undertaken to determine relative differences, using 5 regions per study.

[2] = test system: subjects (27 men, 9 women); assay: Example 7: pharmacologic stress myocardial perfusion imaging protocol, adverse effects and hemodynamics; format: in vivo, human
Source text: 36 subjects (27 men, 9 women; 67±10 years) were studied with two doses of CVT-3146 [400 mcg (n=18), 500 mcg (n=18)], administered as an IV bolus, as part of a pharmacologic stress myocardial perfusion imaging protocol.

[3] = test system: humans; assay: Example 1: open label study, CBFv by Doppler flow wire after IV bolus in catheterization patients; format: in vivo
Description: The purpose of this open label study was to determine the magnitude and duration of effect of CVT-3146 (10-500 µg) on CBFv in humans.
METHODS: Patients undergoing a clinically indicated coronary catheterization with no more than a 70% stenosis in any coronary artery and no more than a 50% stenosis of the study vessel had CBFv determined by Doppler flow wire. Study subject were selected after measuring baseline and peak CBFv after an intracoronary (IC) injection of 18 µg of Ado. Twenty-three patients, who were identified as meeting the study criteria of having a peak to baseline CBFv ratio of ≥ 2.5 in response to Adenosine, received a rapid (≤ 10 sec) peripheral IV bolus of CVT-3146; Doppler signals were stable and interpretable over the time-course of the increase in CBFv in 17 patients.

[4] = test system: awake rats; assay: Example 5: sympathoexcitation, heart rate, blood pressure and plasma catecholamines after i.v. bolus; format: in vivo
Description: The present study was carried out to determine whether CVT-3146, a selective A2A adenosine receptor agonist, causes sympathoexcitation. CVT-3146 (0.31µg/kg-50 µg/kg) was given as a rapid i.v. bolus to awake rats and heart rate (HR) and blood pressure (BP) were monitored. CVT-3146 caused an increase in BP and systolic pressure (SP) at lower doses while at higher doses there was a decrease in BP and SP. […] The increase in HR was evident at the lowest dose of CVT-3146 at which there was no appreciable decrease in BP. ZM241385 (30 µg/kg , N=5), an A2A receptor antagonist, attenuated the decrease in BP (CVT-3146: 14±3%, ZM: 1±1 %) and the increase in HR (CVT: 27±3%, ZM: 18±3%) caused by CVT-3146. Pretreatment with metoprolol (MET, 1 mg/kg, n=5), a beta-blocker, attenuated the increase in HR (CVT: 27±3%, MET: 15±2%), but had no effect on hypotension caused by CVT-3146. In the presence of hexamethonium (HEX, 10 mg/kg, n=5), a ganglionic blocker, the tachycardia was prevented (CVT: 27±3%, HEX: -1±2%), but BP was further reduced (CVT: -11±2%, HEX: -49±5%).

[5] = test system: awake dogs; assay: Example 8: vasodilator effects in different vascular beds of chronically instrumented dogs; format: in vivo
Source text: In this study the vasodilator effects of CVT-3146 were compared to those of ADO in different vascular beds in awake dogs. Dogs were chronically instrumented for measurements of the blood flow in coronary (CBF), mesenteric (MBF), hind limb (LBF), and renal (RBF) vascular beds, and hemodynamics.

[6] = direct comparison of A and CVT-3146 images, 5 regions per study
[7] = peak hemodynamic changes, mean±S.D., 400 and 500 mcg

CNC(=O)c1cnn(-c2nc(N)c3ncn([C@@H]4O[C@H](CO)[C@@H](O)[C@H]4O)c3n2)c1 [CVT-3146, (1-{9-[(4S,2R,3R,5R)-3,4-dihydroxy-5-(hydroxymethyl)oxolan-2-yl]-6-aminopurin-2-yl}pyrazol-4-yl)-N-methylcarboxamide]
summed scores following stress, quantitative methods of analysis ([1]; SPECT MPI, 4D MSPECT, CVT-3146 400 or 500 mcg IV bolus, A infusion): 13.6±1.6
summed scores following stress, visual ([1]; SPECT MPI, 17-segment model, CVT-3146 400 or 500 mcg IV bolus, A infusion): 13.2±1.3
regional concordance for ischemia extent [1, 6]: 86.3%
regional concordance for ischemia severity [1, 6]: 83.4%
ST abnormalities developed ([2]; 36 subjects): 7 pts
T wave abnormalities developed ([2]; 36 subjects): 5 pts
Flushing ([2]; 400-mcg group): 17%
dizziness ([2]; 400-mcg group): 11%
dyspnea ([2]; 400-mcg group): 17%
mean change in HR response ([2]; 400 mcg dose): 34.8%
Flushing ([2]; 500-mcg group): 44%
dizziness ([2]; 500-mcg group): 28%
dyspnea ([2]; 500-mcg group): 44%
mean change in HR response ([2]; 500 mcg dose): 44.2%
BP changes deviated from baseline ([2]; Thirty min after CVT-3146): < 2%
HR remained above baseline by ([2]; Thirty min after CVT-3146): 8.6%
abdominal pain ([2]; both doses, 36 subjects): 11%
chest discomfort ([2]; both doses, 36 subjects): 33%
headache ([2]; both doses, 36 subjects): 25%
systolic BP did not fall below ([2]; either dose): ≥ 90 mmHg
serious AE occurred ([2]; exacerbation of a migraine headache, required hospitalization): One
2nd or 3rd degree AV block ([2]; in vivo): No 2nd or 3rd degree AV block was noted
serious arrhythmias ([2]; in vivo): no serious arrhythmias
time of peak hemodynamic effect, diastolic BP ([2]; in vivo): 8 min
time of peak hemodynamic effect, heart rate (HR) ([2]; in vivo): ≤ 0.033 h
time of peak hemodynamic effect, systolic blood pressure (BP) ([2]; in vivo): 4 min
Diastolic BP, Absolute Change [2, 7]: -5.4±7.2 mmHg
Diastolic BP, Relative Change [2, 7]: -7.9%±10.5%
Heart Rate, Absolute Change [2, 7]: +21.9±10.4 beats per min
Heart Rate, Relative Change [2, 7]: +36.7%+21.0%
Systolic BP, Absolute Change [2, 7]: -5.9±10.7 mmHg
Systolic BP, Relative Change [2, 7]: 4.1%±7.6%
AEs mild to moderate ([2]; share of AEs): 96%
AEs resolved within 15 min without treatment ([2]; share of AEs): 91%
duration of CBFv augmentation (≥ 2-fold increase in CBFv) ([3]; 300 µg IV bolus): 4.0 ± 4.9 min
duration of CBFv augmentation (≥ 2-fold increase in CBFv) ([3]; 500 µg IV bolus): 6.9 ± 7.6 min
maximal decrease in systolic blood pressure (BP) ([3]; 500 µg IV bolus (n=3)): 8.7 ± 7.6
maximal increase in heart rate (HR) ([3]; 500 µg IV bolus (n=3)): 18.7 ± 4.0
Adverse events (AEs) ([3]; 3 patients receiving the 500 µg dose): No AEs were noted
Adverse events (AEs) ([3]; 10-500 µg IV bolus, nausea, flushing, headache, mild and self-limited): infrequent
peak to baseline ratio (CBFv) ([3]; IV bolus, doses of 100 µg (n=3), 300 µg (n=4) and 500 µg (n=2), mean ± SD): 3.2 ± 0.6
increase in HR ([4]; CVT-3146 alone): 27±3%
decrease in BP ([4]; CVT-3146 alone (comparison with ZM241385)): 14±3%
BP (change) ([4]; CVT-3146 alone (comparison with hexamethonium)): -11±2%
duration for CBF above 2-fold of the baseline ([5]; 2.5 µg/kg): 130 ± 19 s
increase in LBF (hind limb blood flow) ([5]; Figure 18, mean ± SE, n=6, compared with ADO): smaller increase in LBF than ADO
